The source of these data is PubChem BioAssay AID1996.

Converted amounts (≈) assume the structure as drawn. Where only a bound is given, the exact number is not on record here.

For the data set the following is noted: buffer; pH 7.4; 200.0 µM.
By kinetic solubility is commonly meant the concentration staying in solution when a stock, usually in DMSO, is diluted into the medium. With `CC(=O)N(Cc1cc(=O)[nH]c2ccccc12)c1ccccc1C`, the kinetic solubility was 43.6 µg/mL (≈ 142 µM).

Consider `CCOC(=O)c1ccc(N)cc1`, for which the solubility (kinetic) was > 24.8 µg/mL.

For `O=C(Nc1cccc2cccnc12)c1ccc(Cl)cc1Cl`, the solubility (kinetic) was < 0.3 µg/mL.

As for `Nc1ccc([As](=O)(O)O)cc1`, the kinetic solubility is > 32.6 µg/mL.

Consider `O=C(O)C1C2C=CC(O2)C1C(=O)NCCc1cccc(Cl)c1` (centres undefined), for which the solubility (kinetic) was > 48.3 µg/mL.

As for `Cc1ccc(Nc2nc(C)nc3c2oc2ccccc23)cc1`, the kinetic solubility came to 0.3 µg/mL (≈ 1.04 µM).

In the case of `COc1ccc(S(=O)(=O)N2CCN(Cc3cccnc3)CC2)cc1`, the solubility (kinetic) was > 52.1 µg/mL.

Regarding `CC(=O)c1cccc(NC(=O)C2C3C=CC(C3)C2C(=O)O)c1` (centres undefined), the solubility (kinetic) is > 44.9 µg/mL.

In turn, `COc1ccc([N+](=O)[O-])cc1NC(=O)COC(C)=O` returned a kinetic solubility of 35.7 µg/mL (≈ 133 µM).

`COc1ccc(NC(=O)COc2ccc3oc(=O)cc(C)c3c2)cc1`: the solubility (kinetic) is < 0.7 µg/mL.

For the compound `COC(=O)c1ccc(N)nc1`, the solubility (kinetic) was > 22.8 µg/mL.

Turning to `Cc1cccc(Cc2nnc(CCC(=O)N(C)Cc3ccncc3C)o2)c1`, the kinetic solubility is > 54.7 µg/mL.

`Cc1ccc(C(=O)C(C)OC(=O)c2nc(Cl)ccc2Cl)cc1` (centres undefined): the solubility (kinetic) was > 50.7 µg/mL.

On to `CCOc1ccc(S(=O)(=O)Nc2ccc(C(=O)N3CCCC3)cc2)cc1`, for which the solubility (kinetic) is 53.3 µg/mL (≈ 142 µM).

Compound `Cc1ccc(N2C(=O)Nc3ccccc3S2(=O)=O)cc1Cl` came in with a solubility (kinetic) of 0.8 µg/mL (≈ 2.48 µM).

In the case of `CC(C)Cc1nc(Cl)c(C#N)c2c1CCC2`, the solubility (kinetic) is 3.8 µg/mL (≈ 16.2 µM).

As for `O=C1CN(C(=O)COc2ccc(Br)cc2)c2ccccc2N1`, the kinetic solubility amounted to 10.3 µg/mL (≈ 28.5 µM). Against the preceding compound, the solubility kinetic is about 2.7-fold higher.

`O=C(O)c1ccc(S(=O)(=O)Nc2ccc3c(c2)OCCO3)cc1` came in with a solubility (kinetic) of 41.5 µg/mL (≈ 124 µM).

Consider `COc1ccccc1NC(=O)CCNC(=O)c1ccc(C)cc1`, for which the kinetic solubility is > 46.9 µg/mL.
